{"source": "patent US20150017667A1", "about": "“MEANS AND METHODS FOR ASSESSING LIVER DISORDERS” (BASF SE, priority 2012, published 2015)", "key": {"male rats": {"tested_on": "male rats", "experiment": "28-day repeated dose oral toxicity study (OECD 407) with GC-MS/LC-MS plasma metabolite profiling, male rats", "type": "in vivo, rat", "settings": "plasma", "excerpt": "Drinking water was also offered ad libitum.\nThe samples were centrifuged for generation of plasma."}, "female rats": {"tested_on": "female rats", "experiment": "28-day repeated dose oral toxicity study (OECD 407) with GC-MS/LC-MS plasma metabolite profiling, female rats", "experimental": "A group of each 5 male and female rats was dosed once daily with the indicated compounds (see Table 5, below for compounds, applied doses and administeration details) over 28 days.\nEach dose group in the studies consisted of five rats per sex. Additional groups of each 5 male and female animals served as controls. Before starting the treatment period, animals, which were 62-64 days old when supplied, were acclimatized to the housing and environmental conditions for 7 days. All animals of the animal population were kept under the same constant temperature (20-24±3° C.) and the same constant humidity (30-70%). The animals of the animal population were fed ad libitum. The food to be used was essentially free of chemical or microbial contaminants. Drinking water was also offered ad libitum. Accordingly, the water was free of chemical and microbial contaminants as laid down in the European Drinking Water Directive 98/83/EG. The illumination period was 12 hours light followed by 12 hours darkness (12 hours light, from 6:00 to 18:00, and 12 hours darkness, from 18:00 to 6:00).\nIn the morning of day 7, 14, and 28, blood was taken from the retroorbital venous plexus from fasted anaesthetized animals. From each animal, 1 ml of blood was collected with EDTA as anticoagulant. The samples were centrifuged for generation of plasma. All plasma samples were covered with a N2 atmosphere and then stored at −80° C. until analysis.\nFor mass spectrometry-based metabolite profiling analyses plasma samples were extracted and a polar and a non-polar (lipid) fraction was obtained. For GC-MS analysis, the non-polar fraction was treated with methanol under acidic conditions to yield the fatty acid methyl esters. Both fractions were further derivatised with O-methyl-hydroxyamine hydrochloride and pyridine to convert Oxogroups to O-methyloximes and subsequently with a silylating agent before analysis. In LC-MS analysis, both fractions were reconstituted in appropriate solvent mixtures. HPLC was performed by gradient elution on reversed phase separation columns.\nFollowing comprehensive analytical validation steps, the data for each analyte were normalized against data from pool samples. These samples were run in parallel through the whole process to account for process variability. The significance of treatment group values specific for sex, treatment duration and metabolite was determined by comparing means of the treated groups to the means of the respective untreated control groups using WELCH-test and quantified with treatment ratios versus control and p-values."}}, "note": "Marks after values point to notes of the source that are not given here."}
{"smiles": "Cc1cccc(C)c1N(Cn1cccn1)C(=O)CCl", "note": "[Metazachlor, N-(2,6-dimethylphenyl)-N-(pyrazol-1-ylmethyl)chloroacetamid]", "values": [{"measurement": "4-Hydroxyphenylpyruvate, ratio versus control", "setting": "male rats; day 7", "value": "2.23*"}, {"measurement": "Glycerol-3-phosphate, polar fraction, ratio versus control", "setting": "male rats; day 7", "value": 1.04}, {"measurement": "Phosphatidylcholine (C16:1,C18:2), ratio versus control", "setting": "male rats; day 7", "value": "1.29*"}, {"measurement": "Phosphatidylcholine (C18:0,C18:1), ratio versus control", "setting": "male rats; day 7", "value": "1.56*"}, {"measurement": "Phosphatidylcholine (C18:0,C18:2), ratio versus control", "setting": "male rats; day 7", "value": "1.4*"}, {"measurement": "Phytosphingosine, ratio versus control", "setting": "male rats; day 7", "value": "2.08*"}, {"measurement": "Lysophosphatidylcholine (C18:1), ratio versus control", "setting": "male rats; day 7 (Table 2)", "value": "1.1*"}, {"measurement": "Phosphatidylcholine (C16:0,C20:5), ratio versus control", "setting": "male rats; day 7 (Table 2)", "value": 1}, {"measurement": "alpha-Tocopherol, ratio versus control", "setting": "male rats; day 7 (Table 2)", "value": "1.8*"}, {"measurement": "4-Hydroxyphenylpyruvate, ratio versus control", "setting": "male rats; day 14", "value": "2.59*"}, {"measurement": "Glycerol-3-phosphate, polar fraction, ratio versus control", "setting": "male rats; day 14", "value": "1.63*"}, {"measurement": "Phosphatidylcholine (C16:1,C18:2), ratio versus control", "setting": "male rats; day 14", "value": "2.11*"}, {"measurement": "Phosphatidylcholine (C18:0,C18:1), ratio versus control", "setting": "male rats; day 14", "value": "2.37*"}, {"measurement": "Phosphatidylcholine (C18:0,C18:2), ratio versus control", "setting": "male rats; day 14", "value": "1.55*"}, {"measurement": "Phytosphingosine, ratio versus control", "setting": "male rats; day 14", "value": "2.86*"}, {"measurement": "Lysophosphatidylcholine (C18:1), ratio versus control", "setting": "male rats; day 14 (Table 2)", "value": "1.49*"}, {"measurement": "Phosphatidylcholine (C16:0,C20:5), ratio versus control", "setting": "male rats; day 14 (Table 2)", "value": "1.47*"}, {"measurement": "alpha-Tocopherol, ratio versus control", "setting": "male rats; day 14 (Table 2)", "value": "1.3*"}, {"measurement": "4-Hydroxyphenylpyruvate, ratio versus control", "setting": "male rats; day 28", "value": "3.26*"}, {"measurement": "Glycerol-3-phosphate, polar fraction, ratio versus control", "setting": "male rats; day 28", "value": "1.52*"}, {"measurement": "Phosphatidylcholine (C16:1,C18:2), ratio versus control", "setting": "male rats; day 28", "value": "2.32*"}, {"measurement": "Phosphatidylcholine (C18:0,C18:1), ratio versus control", "setting": "male rats; day 28", "value": "2.06*"}, {"measurement": "Phosphatidylcholine (C18:0,C18:2), ratio versus control", "setting": "male rats; day 28", "value": "1.51*"}, {"measurement": "Phytosphingosine, ratio versus control", "setting": "male rats; day 28", "value": "3.2*"}, {"measurement": "Lysophosphatidylcholine (C18:1), ratio versus control", "setting": "male rats; day 28 (Table 2)", "value": "1.33*"}, {"measurement": "Phosphatidylcholine (C16:0,C20:5), ratio versus control", "setting": "male rats; day 28 (Table 2)", "value": "1.67*"}, {"measurement": "alpha-Tocopherol, ratio versus control", "setting": "male rats; day 28 (Table 2)", "value": "1.49*"}, {"measurement": "3-O-Methylsphingosine (d18:1), ratio versus control", "setting": "female rats; day 7", "value": "5.2*"}, {"measurement": "5-O-Methylsphingosine (d18:1), ratio versus control", "setting": "female rats; day 7", "value": "5.11*"}, {"measurement": "14-Methylhexadecanoic acid, ratio versus control", "setting": "female rats; day 7", "value": "1.18*"}, {"measurement": "Behenic acid (C22:0), ratio versus control", "setting": "female rats; day 7", "value": "2.8*"}, {"measurement": "Cholesterol, ratio versus control", "setting": "female rats; day 7", "value": "2.52*"}, {"measurement": "Coenzyme Q9, ratio versus control", "setting": "female rats; day 7", "value": "2.3*"}, {"measurement": "DAG (C18:1,C18:2), ratio versus control", "setting": "female rats; day 7", "value": "1.52*"}, {"measurement": "Eicosanoic acid (C20:0), ratio versus control", "setting": "female rats; day 7", "value": "2.17*"}, {"measurement": "Glucose, ratio versus control", "setting": "female rats; day 7", "value": "1.4*"}, {"measurement": "Glycerol phosphate, lipid fraction, ratio versus control", "setting": "female rats; day 7", "value": "2.41*"}, {"measurement": "Glycerol, lipid fraction, ratio versus control", "setting": "female rats; day 7", "value": "1.89*"}, {"measurement": "Glycerol-3-phosphate, polar fraction, ratio versus control", "setting": "female rats; day 7", "value": "1.61*"}, {"measurement": "Heptadecanoic acid (C17:0), ratio versus control", "setting": "female rats; day 7", "value": "1.53*"}, {"measurement": "Linoleic acid (C18:cis[9,12]2), ratio versus control", "setting": "female rats; day 7", "value": "2.33*"}, {"measurement": "Nervonic acid (C24:cis[15]1), ratio versus control", "setting": "female rats; day 7", "value": "4.5*"}, {"measurement": "Palmitic acid (C16:0), ratio versus control", "setting": "female rats; day 7", "value": "1.96*"}, {"measurement": "Phosphatidylcholine (C16:0,C20:5), ratio versus control", "setting": "female rats; day 7", "value": "1.18*"}, {"measurement": "TAG (C16:0,C18:1,C18:3), ratio versus control", "setting": "female rats; day 7", "value": "2.84*"}, {"measurement": "TAG (C16:0,C18:2), ratio versus control", "setting": "female rats; day 7", "value": "2.65*"}, {"measurement": "TAG (C18:1,C18:2), ratio versus control", "setting": "female rats; day 7", "value": "2.65*"}, {"measurement": "TAG (C18:2,C18:2), ratio versus control", "setting": "female rats; day 7", "value": "2.42*"}, {"measurement": "TAG (C18:2,C18:3), ratio versus control", "setting": "female rats; day 7", "value": "2.42*"}, {"measurement": "TAG No 01, ratio versus control", "setting": "female rats; day 7", "value": "1.87*"}, {"measurement": "TAG No 05, ratio versus control", "setting": "female rats; day 7", "value": "2.27*"}, {"measurement": "TAG No 07, ratio versus control", "setting": "female rats; day 7", "value": 1.97}, {"measurement": "dihomo-gamma-Linolenic acid (C20:cis[8,11,14]3), ratio versus control", "setting": "female rats; day 7", "value": "2.69*"}, {"measurement": "erythro-Sphingosine, ratio versus control", "setting": "female rats; day 7", "value": "4.06*"}, {"measurement": "3-O-Methylsphingosine (d18:1), ratio versus control", "setting": "female rats; day 14", "value": "7.58*"}, {"measurement": "5-O-Methylsphingosine (d18:1), ratio versus control", "setting": "female rats; day 14", "value": "7.74*"}, {"measurement": "14-Methylhexadecanoic acid, ratio versus control", "setting": "female rats; day 14", "value": "1.17*"}, {"measurement": "Behenic acid (C22:0), ratio versus control", "setting": "female rats; day 14", "value": "4.3*"}, {"measurement": "Cholesterol, ratio versus control", "setting": "female rats; day 14", "value": "2.96*"}, {"measurement": "Coenzyme Q9, ratio versus control", "setting": "female rats; day 14", "value": "2.09*"}, {"measurement": "DAG (C18:1,C18:2), ratio versus control", "setting": "female rats; day 14", "value": "1.92*"}, {"measurement": "Eicosanoic acid (C20:0), ratio versus control", "setting": "female rats; day 14", "value": "3.19*"}, {"measurement": "Glucose, ratio versus control", "setting": "female rats; day 14", "value": "1.17*"}, {"measurement": "Glycerol phosphate, lipid fraction, ratio versus control", "setting": "female rats; day 14", "value": "3.43*"}, {"measurement": "Glycerol, lipid fraction, ratio versus control", "setting": "female rats; day 14", "value": "2.34*"}, {"measurement": "Glycerol-3-phosphate, polar fraction, ratio versus control", "setting": "female rats; day 14", "value": "1.72*"}, {"measurement": "Heptadecanoic acid (C17:0), ratio versus control", "setting": "female rats; day 14", "value": "1.98*"}, {"measurement": "Linoleic acid (C18:cis[9,12]2), ratio versus control", "setting": "female rats; day 14", "value": "3.2*"}, {"measurement": "Nervonic acid (C24:cis[15]1), ratio versus control", "setting": "female rats; day 14", "value": "5.92*"}, {"measurement": "Palmitic acid (C16:0), ratio versus control", "setting": "female rats; day 14", "value": "2.83*"}, {"measurement": "Phosphatidylcholine (C16:0,C20:5), ratio versus control", "setting": "female rats; day 14", "value": "1.46*"}, {"measurement": "TAG (C16:0,C18:1,C18:3), ratio versus control", "setting": "female rats; day 14", "value": "3.67*"}, {"measurement": "TAG (C16:0,C18:2), ratio versus control", "setting": "female rats; day 14", "value": "3.69*"}, {"measurement": "TAG (C18:1,C18:2), ratio versus control", "setting": "female rats; day 14", "value": "2.74*"}, {"measurement": "TAG (C18:2,C18:2), ratio versus control", "setting": "female rats; day 14", "value": "2.51*"}, {"measurement": "TAG (C18:2,C18:3), ratio versus control", "setting": "female rats; day 14", "value": "2.89*"}, {"measurement": "TAG No 01, ratio versus control", "setting": "female rats; day 14", "value": "1.99*"}, {"measurement": "TAG No 05, ratio versus control", "setting": "female rats; day 14", "value": "4.68*"}, {"measurement": "TAG No 07, ratio versus control", "setting": "female rats; day 14", "value": "3.87*"}, {"measurement": "dihomo-gamma-Linolenic acid (C20:cis[8,11,14]3), ratio versus control", "setting": "female rats; day 14", "value": "4.76*"}, {"measurement": "erythro-Sphingosine, ratio versus control", "setting": "female rats; day 14", "value": "5.79*"}, {"measurement": "3-O-Methylsphingosine (d18:1), ratio versus control", "setting": "female rats; day 28", "value": "5.44*"}, {"measurement": "5-O-Methylsphingosine (d18:1), ratio versus control", "setting": "female rats; day 28", "value": "5.42*"}, {"measurement": "14-Methylhexadecanoic acid, ratio versus control", "setting": "female rats; day 28", "value": "1.19*"}, {"measurement": "Behenic acid (C22:0), ratio versus control", "setting": "female rats; day 28", "value": "3.4*"}, {"measurement": "Cholesterol, ratio versus control", "setting": "female rats; day 28", "value": "2.72*"}, {"measurement": "Coenzyme Q9, ratio versus control", "setting": "female rats; day 28", "value": "1.75*"}, {"measurement": "DAG (C18:1,C18:2), ratio versus control", "setting": "female rats; day 28", "value": "2.94*"}, {"measurement": "Eicosanoic acid (C20:0), ratio versus control", "setting": "female rats; day 28", "value": "2.49*"}, {"measurement": "Glucose, ratio versus control", "setting": "female rats; day 28", "value": 0.99}, {"measurement": "Glycerol phosphate, lipid fraction, ratio versus control", "setting": "female rats; day 28", "value": "2.93*"}, {"measurement": "Glycerol, lipid fraction, ratio versus control", "setting": "female rats; day 28", "value": "3.13*"}, {"measurement": "Glycerol-3-phosphate, polar fraction, ratio versus control", "setting": "female rats; day 28", "value": "1.55*"}, {"measurement": "Heptadecanoic acid (C17:0), ratio versus control", "setting": "female rats; day 28", "value": "2.08*"}, {"measurement": "Linoleic acid (C18:cis[9,12]2), ratio versus control", "setting": "female rats; day 28", "value": "3.43*"}, {"measurement": "Nervonic acid (C24:cis[15]1), ratio versus control", "setting": "female rats; day 28", "value": "5.03*"}, {"measurement": "Palmitic acid (C16:0), ratio versus control", "setting": "female rats; day 28", "value": "2.86*"}, {"measurement": "Phosphatidylcholine (C16:0,C20:5), ratio versus control", "setting": "female rats; day 28", "value": "1.26*"}, {"measurement": "TAG (C16:0,C18:1,C18:3), ratio versus control", "setting": "female rats; day 28", "value": "5.22*"}, {"measurement": "TAG (C16:0,C18:2), ratio versus control", "setting": "female rats; day 28", "value": "3.73*"}, {"measurement": "TAG (C18:1,C18:2), ratio versus control", "setting": "female rats; day 28", "value": "3.09*"}, {"measurement": "TAG (C18:2,C18:2), ratio versus control", "setting": "female rats; day 28", "value": "4.34*"}, {"measurement": "TAG (C18:2,C18:3), ratio versus control", "setting": "female rats; day 28", "value": "4.18*"}, {"measurement": "TAG No 01, ratio versus control", "setting": "female rats; day 28", "value": "3.16*"}, {"measurement": "TAG No 05, ratio versus control", "setting": "female rats; day 28", "value": "5.27*"}, {"measurement": "TAG No 07, ratio versus control", "setting": "female rats; day 28", "value": "4.1*"}, {"measurement": "dihomo-gamma-Linolenic acid (C20:cis[8,11,14]3), ratio versus control", "setting": "female rats; day 28", "value": "4.48*"}, {"measurement": "erythro-Sphingosine, ratio versus control", "setting": "female rats; day 28", "value": "4.33*"}]}
